Test results taken from patent US20170197910A1, “SUBSTITUTED VINYL AND ALKYNYL CYANOCYCLOALKANOLS AND VINYL AND ALKYNYL CYANOHETEROCYCLOALKANOLS AS ACTIVE AGENTS AGAINST ABIOTIC PLANT STRESS” (BAYER CROPSCIENCE AKTIENGESELLSCHAFT, priority 2014, published 2017).

What was measured:
[1] = target: T1, phosphatase ABI1 via the co-regulator RCAR11/PYR1 (Arabidopsis thaliana, UniProt O49686+P49597); test: In vitro inhibition of phosphatase ABI1 via co-regulator RCAR11/PYR1, MUP dephosphorylation fluorescence assay; assay type: biochemical; conditions: concentration of 5 mM of the substance in DMSO and water; MUP substrate, 35° C., 20 minutes
T1 sequence (O49686 1-191): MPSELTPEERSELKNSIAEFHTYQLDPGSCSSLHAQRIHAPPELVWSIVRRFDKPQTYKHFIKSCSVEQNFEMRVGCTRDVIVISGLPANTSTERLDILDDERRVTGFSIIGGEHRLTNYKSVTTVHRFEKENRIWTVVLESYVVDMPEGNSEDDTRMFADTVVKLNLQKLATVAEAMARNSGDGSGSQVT
T1 sequence (P49597 1-434): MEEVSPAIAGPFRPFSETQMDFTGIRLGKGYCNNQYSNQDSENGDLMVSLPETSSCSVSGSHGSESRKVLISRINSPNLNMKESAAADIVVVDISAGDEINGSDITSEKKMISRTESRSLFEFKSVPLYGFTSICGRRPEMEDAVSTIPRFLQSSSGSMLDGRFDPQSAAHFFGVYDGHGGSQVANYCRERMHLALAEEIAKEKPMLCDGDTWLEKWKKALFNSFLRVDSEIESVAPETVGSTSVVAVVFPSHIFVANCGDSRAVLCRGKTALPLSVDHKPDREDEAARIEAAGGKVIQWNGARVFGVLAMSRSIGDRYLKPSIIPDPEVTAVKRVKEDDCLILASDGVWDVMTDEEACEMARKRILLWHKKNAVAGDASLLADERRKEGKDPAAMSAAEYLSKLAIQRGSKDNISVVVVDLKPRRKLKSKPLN
Text: Effects of the phytohormone abscisic acid (ABA) on the behaviour of plants under abiotic stress and the mechanism of action of ABA are described in the literature (cf. Abrams et al., WO97/23441, Cutler, Park et al. Science, 2009, 324, 1068; Grill et al. Science, 2009, 324, 1064; Tanokura et al. Biophysics, 2011, 7, 123; Schroeder et al. Plant J. 2010, 61, 290). Therefore, it is possible with the aid of a suitable in vitro test system to derive a correlation between the action of ABA and the stress response of a plant under abiotic stress. In the event of water deficiency (drought stress), plants form the phytohormone abscisic acid (ABA). […]
The assay described hereinafter utilizes the inhibition of the phosphatase ABI1 via the co-regulator RCAR11/PYR1 aus Arabidopsis thaliana. For the determination of activity, the dephosphorylation of 4-methylumbelliferyl phosphate (MUP) was measured at 460 nm. […]
Enzyme buffer mix and substrate mix were made up 5 minutes prior to the addition and warmed to a temperature of 35° C. […] Finally, a relative fluorescence measurement was made at 35° C. with a BMG Labtech “POLARstar Optima” microplate reader using a 340/10 nm excitation filter and a 460 nm emission filter. […]

Zea mays = test: In vivo drought stress test on crop plants, spray application, visual scoring vs stressed control (ZEAMX); set-up: key: 0: no positive effect; 10: slight positive effect; 20: clear positive effect; 30: strong positive effect; conditions: dosage 250 g/ha, average score of 3 pots vs stressed control
Protocol: (§1) Seeds of monocotyledonous and dicotyledonous crop plants were sown in sandy loam in plastic pots, covered with soil or sand and cultivated in a greenhouse under good growth conditions. The trial plants were treated at the early leaf stage (BBCH10-BBCH13). To assure uniform water supply before commencement of stress, the potted plants were supplied with water by dam irrigation prior to substance application. The inventive compounds, formulated in the form of wettable powders (WP), were sprayed onto the green parts of the plants as an aqueous suspension at an equivalent water application rate of 600 I/ha with addition of 0.2% wetting agent (e.g. agrotin). Substance application was followed immediately by stress treatment of the plants. […] Once this juncture had been reached, the appearance of the plants treated with test substances was recorded in comparison to the stressed control plants by the following categories: • 0 no positive effect • 10 slight positive effect • 20 clear positive effect • 30 strong positive effect In order to rule out any influence on the effects observed by any fungicidal or insecticidal action of the test compounds, it was additionally ensured that the tests proceeded without fungal infection or insect infestation. In each test, for each crop and dosage, plants in 3 pots were treated and evaluated separately. […]

Triticum aestivum = test: In vivo drought stress test on crop plants, spray application, visual scoring vs stressed control (TRZAS); set-up: key: 0: no positive effect; 10: slight positive effect; 20: clear positive effect; 30: strong positive effect; conditions: dosage 250 g/ha, average score of 3 pots vs stressed control
Protocol: as §1

SMILES | ABI1 inhibition [1] | Effect (ZEAMX) (Zea mays) | Effect (TRZAS) (Triticum aestivum)
CC(C)C(O)(C#Cc1ccccc1C(=O)O)C1(C#N)CC1 (stereo not shown) [I.1-127, 2-[3-(1-Cyanocyclopropyl)-3-hydroxy-4-methylpent-1-yn-1-yl]benzoic acid] | +++ (90%>inhibition≧70%) |  | 
COC(=O)c1ccccc1C#CC(O)(C(C)C)C1(C#N)CC1 (stereo not shown) [I.1-130, Methyl 2-[3-(1-cyanocyclopropyl)-3-hydroxy-4-methylpent-1-yn-1-yl]benzoate] |  | 20 | 20
CC1=CC(=O)CC(C)(C)[C@@]1(O)/C=C/C(C)=C\C(=O)O [abscisic acid, reference compound] | ++++ (inhibition≧90%) |  | 
